Test results published in US7348347B2, “Substituted 4,5,6,7-tetrahydrobenzthiazol-2-ylamine compounds” (Gruenenthal GmbH, priority 2004, dated 2008).
Like-named read-outs stand apart in the source and are kept apart here.

How the values were obtained:
[1] = target: T1, 5-HT uptake (Rattus norvegicus, UniProt P31652); assay: Inhibition of 5-HT uptake in rat brain synaptosomes; assay type: biochemical; conditions: rat synaptosomes (medulla and pons), [3H]-5-HT
T1 construct: from tissue; host or cells: rat brain synaptosomes (P2 fraction) from marrow (medulla) and pons
T1 sequence (P31652 whole entry): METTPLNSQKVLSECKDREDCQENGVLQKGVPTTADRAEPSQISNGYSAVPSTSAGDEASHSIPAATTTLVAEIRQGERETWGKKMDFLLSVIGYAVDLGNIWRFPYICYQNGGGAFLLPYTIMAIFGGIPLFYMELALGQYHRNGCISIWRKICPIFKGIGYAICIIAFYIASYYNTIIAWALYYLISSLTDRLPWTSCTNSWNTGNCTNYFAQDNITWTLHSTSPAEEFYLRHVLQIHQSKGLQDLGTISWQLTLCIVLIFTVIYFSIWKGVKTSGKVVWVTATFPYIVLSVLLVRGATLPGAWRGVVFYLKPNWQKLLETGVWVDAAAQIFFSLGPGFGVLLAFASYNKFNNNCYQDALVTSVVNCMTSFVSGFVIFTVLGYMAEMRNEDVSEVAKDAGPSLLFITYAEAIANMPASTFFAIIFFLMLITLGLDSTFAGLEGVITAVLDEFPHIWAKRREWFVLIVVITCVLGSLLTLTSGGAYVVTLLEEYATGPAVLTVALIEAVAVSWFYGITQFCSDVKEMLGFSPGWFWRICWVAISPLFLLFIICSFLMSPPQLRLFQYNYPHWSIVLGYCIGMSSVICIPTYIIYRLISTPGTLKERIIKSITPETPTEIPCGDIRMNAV

[2] = target: T2, NA transporter (Rattus norvegicus, UniProt Q63380); assay: Inhibition of noradrenaline uptake in rat brain synaptosomes; assay type: biochemical; conditions: read-out: % Inhibition of NA uptake [10 μM]
T2 construct: from tissue; host or cells: rat brain synaptosomes (P2 fraction) from hypothalamus
T2 sequence (Q63380 1-617): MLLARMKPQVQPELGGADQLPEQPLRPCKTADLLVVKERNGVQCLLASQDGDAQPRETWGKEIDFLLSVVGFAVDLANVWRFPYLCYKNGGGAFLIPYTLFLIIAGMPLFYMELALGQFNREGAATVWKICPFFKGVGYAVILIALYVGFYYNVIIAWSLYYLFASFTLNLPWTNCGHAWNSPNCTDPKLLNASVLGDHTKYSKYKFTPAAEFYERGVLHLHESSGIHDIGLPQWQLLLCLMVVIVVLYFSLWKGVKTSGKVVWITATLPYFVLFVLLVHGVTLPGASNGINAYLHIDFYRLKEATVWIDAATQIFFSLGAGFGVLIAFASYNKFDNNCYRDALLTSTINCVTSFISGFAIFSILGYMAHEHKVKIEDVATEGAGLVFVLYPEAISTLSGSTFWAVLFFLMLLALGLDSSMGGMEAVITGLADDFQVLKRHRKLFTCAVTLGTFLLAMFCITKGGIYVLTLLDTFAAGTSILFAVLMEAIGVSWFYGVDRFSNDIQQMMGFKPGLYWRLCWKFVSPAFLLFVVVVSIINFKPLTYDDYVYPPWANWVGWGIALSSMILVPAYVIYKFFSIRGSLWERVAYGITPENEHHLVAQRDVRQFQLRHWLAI
Method: II. […] For in vitro studies, synaptosomes of rat brain areas are freshly isolated, as described in the article “The isolation of nerve endings from brain” by E. G. Gray and […]. Anatomy 96, pages 79-88, 1962. The relevant literature reference is enclosed herein by reference and is to be regarded as part of the disclosure. […] The homogenate is centrifuged at 4° C. for 10 minutes at 1000 g. […] The respective uptake was measured in a 96 well microtiter plate. The volume was 250 μL and the incubation was carried out at room temperature (ca 20-25° C.) under a blanket of oxygen. […] The 96 samples through were then filtered through a Unifilter GF/B® microtiter plate (Packard) and washed with 200 mL of incubated buffer with the aid of a “Brabdel Cell-Harvester MPXRI 96T”. The Unifilter GF/B plate was dried at 55° C. over a period of 1 h. The plate was then sealed with a back seal® (Packard) and there were then added 35 μL of scintillant fluid per well (Ultima Gold, Packard). Following sealing with a top seal® (Packard) and following adjustment of the equilibrium (approximately over a period of 5 h), the radioactivity is determined in a 1450 Microbeta® (Wallac). […] The amount of protein used in the above determination corresponded to the values known from the literature, such as is described in “Protein measurement with the folin phenol reagent”, Lowry et al., J. Biol. Chem., 193, 265-275, 1951. A detailed description of the method is disclosed in the literature, for example, in […], and B. […] The relevant literature references are incorporated herein by reference and are to be regarded as part of the disclosure.

[3] = system: phenylquinone-induced writhing reactions in mice; assay: Analgesic test using the phenylquinone-induced writhing test on mice; assay type: in vivo, mouse; conditions: male NMRI mice, phenylquinone i.p.
Method: I. Analgesic Test Using the Writhing Test on Mice
The analysis of analgesic activity is carried out using the phenylquinone-induced writhing assay in mice, modified as described in the article by I. C. Hendershot and J. Forsaith ((1959) in J. Pharmacol. Exp. Ther. 125, 237-240. The relevant description is incorporated herein by reference and is to be regarded as part of the present disclosure.
For the present purpose, male NMRI mice are used having a weight of from 25 to 30 g. Groups of 10 animals per substance dose receive, 10 minutes after an intravenous dose of test substances, an intraperitoneal administration of 0.3 ml/mouse of a 0.02% strength aqueous solution of phenylquinone (phenylbenzoquinone, obtainable from Sigma, Deisenhofen; solution produced with the addition of 5% of ethanol and storage in a water bath at 45° C.). The animals are placed individually in observation cages. Using a pushbutton counter, the number of pain-induced stretching movements (so-called writhing reactions=straightening of the body accompanied by stretching of the rear extremities) was counted over a period of from 5 to 20 minutes following the administration of phenylquinone. The control is provided by animals receiving only physiological saline. All substances are tested using the standard dosage of 10 mg/kg. […]

[4] = 10 μM, rat synaptosomes (hypothalamus), [3H]-NA

Compound | inhibition at 10 µM [1] [%] | inhibition at 10 µM [2, 4] [%] | % Inhibition of writhing reactions at 10 mg/kg intravenous [3] [%] | inhibition at 10 µM [2] [%]
CC(C)(C)CC(=O)Nc1nc2c(s1)CCCC2C(=O)NC1CCN(Cc2ccccc2OCc2ccccc2)C1 (centres unmarked) [Example 73, 2-(3,3-Dimethylbutyrylamino)-4,5,6,7-tetrahydrobenzthiazol-4-carboxylic acid [1-(2-benzyloxybenzyl)pyrrolidin-3-yl]amide] | 71 | 75 | – | –
CCOc1ccccc1C(=O)Nc1nc2c(s1)CCCC2C(=O)N1CCN(C(C)c2ccccc2)CC1 (centres unmarked) [Example 75, 2-Ethoxy-N-{4-[4-(1-phenylethyl)piperazin-1-carbonyl]-4,5,6,7-tetrahydrobenzthiazol-2-yl}benzamide] | 59 | 51 | – | –
O=C(CC1CCCCC1)Nc1nc2c(s1)CCCC2C(=O)NCC1CCN(Cc2c(F)cccc2Cl)C1 (centres unmarked) [Example 78, 2-(2-Cyclohexylacetylamino)-4,5,6,7-tetrahydrobenzthiazol-4-carboxylic acid [1-(2-chloro-6-fluorobenzyl)pyrrolidin-3-yl]methylamide] | 54 | 41 | – | –
O=C(Nc1nc2c(s1)CCCC2C(=O)N1CCN(c2ccccc2)CC1)c1ccco1 (centres unmarked) [Example 89, Furan-2-carboxylic acid[4-(4-phenylpiperazin-1-carbonyl)-4,5,6,7-tetrahydrobenzthiazol-2-yl]amide] | – | – | 41 | 77

Further lines, with some results ahead:

inhibition at 10 µM [1] [%] | inhibition at 10 µM [2, 4] [%] | Compound | % Inhibition of writhing reactions at 10 mg/kg intravenous [3] [%] | inhibition at 10 µM [2] [%]
50 | 80 | O=C(Cc1ccc(F)cc1)Nc1nc2c(s1)CCCC2C(=O)N1CCN(c2ccccc2Cl)CC1 (centres unmarked) [Example 81, N-{4-[4-(2-Chlorophenyl)piperazin-1-carbonyl]-4,5,6,7-tetrahydrobenzthiazol-2-yl}-2-(4-fluorophenyl)acetamide] | – | –
41 | 64 | CC(C)(C)CC(=O)Nc1nc2c(s1)CCCC2C(=O)N1CCN(Cc2ccccc2)CC1 (centres unmarked) [Example 82, N-[4-(4-Benzylpiperazin-1-carbonyl)-4,5,6,7-tetrahydrobenzthiazol-2-yl]-3,3-dimethylbutyramide] | – | –
56 | 46 | CC(C)(C)CC(=O)Nc1nc2c(s1)CCCC2C(=O)N1CCN(CC=Cc2ccccc2)CC1 (centres unmarked) [Example 87, 3,3-Dimethyl-N-{4-[4-(3-phenylallyl)piperazin-1-carbonyl]-4,5,6,7-tetrahydrobenzthiazol-2-yl}butyramide] | – | –
